Measured values: the NIST ThermoML archive (doi:10.1016/j.fluid.2012.12.008)

Details: Liquid; for mass density: Vibrating tube method; for thermal conductivity: Hot wire method

CCCC[n+]1ccccc1.F[B-](F)(F)F [1-butylpyridinium tetrafluoroborate]
Details | mass density, 293.15 K [kg/m3] | mass density, 303.15 K [kg/m3] | mass density, 313.15 K [kg/m3] | mass density, 323.15 K [kg/m3] | mass density, 333.15 K [kg/m3] | mass density, 343.15 K [kg/m3] | mass density, 353.15 K [kg/m3] | thermal conductivity, 294.2 K [W/m/K] | thermal conductivity, 314.3 K [W/m/K] | thermal conductivity, 334.3 K [W/m/K]
100 kPa | 1216.5 | 1209.5 | 1202.6 | 1196 | 1188.9 | 1182 | 1175.4 | 0.171 | 0.17 | 0.169
5000 kPa | 1219 | 1211.9 | 1205.1 | 1198.5 | 1191.4 | 1184.5 | 1177.9 | – | – | –
10000 kPa | 1221.1 | 1214.3 | 1207.6 | 1200.9 | 1193.9 | 1187 | 1180.6 | 0.171 | 0.171 | 0.171
15000 kPa | 1223.4 | 1216.4 | 1209.9 | 1203.2 | 1196.4 | 1189.5 | 1183.3 | – | – | –
20000 kPa | 1225.5 | 1218.7 | 1212 | 1205.5 | 1198.8 | 1191.9 | 1185.8 | 0.173 | 0.173 | 0.172

CCCCCCCC[n+]1ccccc1.F[B-](F)(F)F [1-octylpyridinium tetrafluoroborate]
Details | mass density, 293.15 K [kg/m3] | mass density, 303.15 K [kg/m3] | mass density, 313.15 K [kg/m3] | mass density, 323.15 K [kg/m3] | mass density, 333.15 K [kg/m3] | mass density, 343.15 K [kg/m3] | mass density, 353.15 K [kg/m3] | thermal conductivity, 294.2 K [W/m/K] | thermal conductivity, 314.3 K [W/m/K] | thermal conductivity, 334.3 K [W/m/K]
100 kPa | 1111.2 | 1104.4 | 1097.6 | 1091.1 | 1084.4 | 1077.9 | 1071.6 | 0.16 | 0.16 | 0.158
5000 kPa | 1113.8 | 1107.1 | 1100.3 | 1093.9 | 1087.1 | 1080.7 | 1074.4 | – | – | –
10000 kPa | 1116.2 | 1109.6 | 1103 | 1096.6 | 1089.9 | 1083.6 | 1077.3 | 0.163 | 0.161 | 0.159
15000 kPa | 1118.6 | 1112.1 | 1105.4 | 1099 | 1092.6 | 1086.2 | 1080.1 | – | – | –
20000 kPa | 1120.9 | 1114.4 | 1107.8 | 1101.5 | 1095.2 | 1089 | 1083 | 0.165 | 0.164 | 0.161

CCCCCC[n+]1ccccc1.F[B-](F)(F)F [1-hexylpyridinium tetrafluoroborate]
Details | mass density, 293.15 K [kg/m3] | mass density, 303.15 K [kg/m3] | mass density, 313.15 K [kg/m3] | mass density, 323.15 K [kg/m3] | mass density, 333.15 K [kg/m3] | mass density, 343.15 K [kg/m3] | mass density, 353.15 K [kg/m3] | thermal conductivity, 294.2 K [W/m/K] | thermal conductivity, 314.3 K [W/m/K] | thermal conductivity, 334.3 K [W/m/K]
100 kPa | 1157 | 1150.3 | 1143.5 | 1137 | 1130 | 1123.4 | 1116.8 | 0.163 | 0.163 | 0.161
5000 kPa | 1159.5 | 1152.9 | 1146.1 | 1139.7 | 1132.7 | 1126 | 1119.5 | – | – | –
10000 kPa | 1161.8 | 1155.3 | 1148.7 | 1142.2 | 1135.2 | 1128.7 | 1122.3 | 0.165 | 0.163 | 0.162
15000 kPa | 1164.1 | 1157.6 | 1151.1 | 1144.5 | 1137.8 | 1131.2 | 1125 | – | – | –
20000 kPa | 1166.5 | 1159.9 | 1153.4 | 1146.9 | 1140.3 | 1133.8 | 1127.6 | 0.166 | 0.164 | 0.163
